Columns and labels:
[1] = 298.15 K; 101.33 kPa; Liquid; Vibrating tube method
[2] = molar heat capacity at constant pressure; details: Liquid
[3] = molar heat capacity at constant pressure; xn = mol fraction of the nth substance listed; details: 100 kPa, Liquid, Large sample (1 g) DSC

CC12CCC(CC1)C(C)(C)O2 [1,3,3-trimethyl-2-oxabicyclo[2.2.2]octane]
Details | mass density [kg/m3]
[1] | 920.51

[2]
Details | molar heat capacity at constant pressure [J/K/mol]
293.26 K, 101.33 kPa, Small sample (50 mg) DSC | 266.9
303.48 K, 101.33 kPa, Small sample (50 mg) DSC | 273
304.7 K, 100 kPa, Large sample (1 g) DSC | 273.3
309.6 K, 100 kPa, Large sample (1 g) DSC | 276.4
313.71 K, 101.33 kPa, Small sample (50 mg) DSC | 279.5
314.6 K, 100 kPa, Large sample (1 g) DSC | 279.5
319.5 K, 100 kPa, Large sample (1 g) DSC | 282.6
323.93 K, 101.33 kPa, Small sample (50 mg) DSC | 285.2
324.5 K, 100 kPa, Large sample (1 g) DSC | 285.1
334.16 K, 101.33 kPa, Small sample (50 mg) DSC | 290.8
344.38 K, 101.33 kPa, Small sample (50 mg) DSC | 297.7

CC12CCC(CC1)C(C)(C)O2 [1,3,3-trimethyl-2-oxabicyclo[2.2.2]octane] + CCO
molar heat capacity at constant pressure [J/K/mol], [3]
Details | 304.7 K | 309.6 K | 314.6 K | 319.5 K | 324.5 K
x1 = 0.0506 | 123.9 | 126.2 | 128.6 | 131.1 | 133.5
x1 = 0.099 | 132 | 134.6 | 137.1 | 139.7 | 142.1
x1 = 0.1999 | 149 | 151.8 | 154.6 | 157.1 | 160
x1 = 0.3007 | 166 | 169 | 171.8 | 174.9 | 177.7
x1 = 0.3956 | 181.7 | 184.9 | 188.1 | 191.1 | 194.1
x1 = 0.5002 | 199.4 | 202.5 | 205.5 | 208.5 | 211.3
x1 = 0.5975 | 214.3 | 217.4 | 221.5 | 224.5 | 227.4
x1 = 0.7017 | 231.6 | 235.1 | 238 | 241.2 | 244.1
x1 = 0.8065 | 247.2 | 250.5 | 253.6 | 256.7 | 259.3
x1 = 0.8964 | 259.8 | 263.7 | 267 | 269.9 | 272.5
x1 = 0.9501 | 267 | 269.9 | 273.4 | 275.8 | 279
x1 = 1 | 273.3 | 276.4 | 279.5 | 282.6 | 285.1

CCO [ethanol]
Details | mass density [kg/m3]
[1] | 785.2

[2], 100 kPa, Large sample (1 g) DSC
Details | molar heat capacity at constant pressure [J/K/mol]
304.7 K | 115.3
309.6 K | 117.3
314.6 K | 119.6
319.5 K | 121.9
324.5 K | 124.2

CCO [ethanol] + CC12CCC(CC1)C(C)(C)O2
[3], x2 = 0
Details | molar heat capacity at constant pressure [J/K/mol]
304.7 K | 115.3
309.6 K | 117.3
314.6 K | 119.6
319.5 K | 121.9
324.5 K | 124.2
